Earlier results in patent US20070292887A1, “Immunohistochemical Methods” (Bayer Pharmaceuticals Corporation, priority 2003, published 2007).
Read-outs that look alike come from different tables or passages of the source.

What was measured:
[1] = system: human cancer cell lines; conditions: in vitro
[2] = system: human cancer cell lines; conditions: in vivo
[3] = system: SKOV3 xenografts; conditions: SKOV3 xenografts in mice
[4] = system: MDA-MB-231 xenografts; conditions: MDA-MB-231 xenografts in mice
[5] = system: SKOV (human ovarian cancer) cells; conditions: preincubation of SKOV cells
[6] = system: keratinocytes (normal skin); conditions: biopsies of normal skin prior to and following administration, humans

- expression of Ki-67 in keratinocytes [6]: decreased expression
Compound: COc1cc2ncnc(Nc3ccc(F)c(Cl)c3)c2cc1OCCCN1CCOCC1 [ZD1839]
- proliferation of human cancer cell lines [1]: inhibited the proliferation
- proliferation of human cancer cell lines [2]: inhibited the proliferation
- constitutive ERK MAP kinase activation [3]: inhibition
- tumor growth rates [3]: reductions in tumor growth rates
- constitutive ERK MAP kinase activation [4]: inhibition
- tumor growth rates [4]: reductions in tumor growth rates
- EGF-induced increases in activation of ERK MAP kinases [5]: block
- EGF-induced increases in activation of PKB/Akt [5]: block
- expression of activated MAPK in keratinocytes [6]: decreased expression
